Assay results published in patent US20190248739A1 (NEWLINK GENETICS CORPORATION, priority 2015, published 2019).
Where a name gives a salt, the structure may show the parent alone. One block for each compound: values may come before it.

Experiments:
[1] = pharmacokinetic testing of indoximod prodrugs in liquid formulation in rats; assay type: in vivo; settings: oral solution, 50 mg/kg
[2] = pharmacokinetic testing of indoximod prodrugs in liquid formulation in mice; settings: mice, oral, 50 mg/kg
Method: Blood samples (0.1-0.2 mL) were collected from the femoral artery port from rats or by retro-orbital bleeding from mice and plasma was immediately collected by centrifugation and stored on dry ice to avoid prodrug hydrolysis after plasma collection. […] The pharmacokinetic parameters reflect the average of individual parameter values obtained from each individual rat (n) or one common parameter from a single pharmacokinetic curve derived from blood samples obtained from a group of mice (n).

[3] = hygroscopicity and stability of indoximod and its salts; assay type: physicochemical; settings: Table 2; listed as HCl Salt; in % (unit assumed)
[4] = solubility of indoximod and its salts in water, buffers and SGF; assay type: physicochemical; settings: 25° C.
[5] = crossover pharmacokinetic study of indoximod free base, salts and SDD in cynomolgus monkeys; assay type: in vivo; settings: for % Increase over indoximod FB (AUC) / % Increase over indoximod FB (Cmax) / AUC(0 −> 48 h) / Cmax: oral
Method: The SDD suspension formulations were prepared in 0.5% methylcellulose (Methocel).

[6] = pharmacokinetic testing of indoximod salts in capsule formulation in rats; assay type: in vivo; settings: capsules
Method: Three dose levels were investigated: 37, 185 or 500 μmol/kg.
Capsules were manually filled and the composition uniformity of a representative sample of capsules from each batch was verified by weight and by LC-MS/MS to determine the average indoximod content.
Rats were fasted 16 h prior to dosing to eliminate any confounding food effects, and food was returned 2 h after dosing.

[7] = both dose levels (275 and 825 μmol/kg)
[8] = 37 μmol/kg, listed as Indoximod hydrochloride salt
[9] = 185 μmol/kg, listed as Indoximod hydrochloride salt
[10] = 500 μmol/kg, listed as Indoximod hydrochloride salt

change in indoximod AUC versus indoximod [1]: does not produce a significant increase | change in indoximod Cmax versus indoximod [1]: does not produce a significant increase | change in indoximod AUC versus indoximod [2]: significant increase | change in indoximod Cmax versus indoximod [2]: significant increase
Structure (SMILES): CC(C)OC(=O)[C@H](N)Cc1cn(C)c2ccccc12 [NLG-1284, isopropyl 1-methyl-D-tryptophanate hydrochloride]

change in indoximod AUC versus indoximod [1]: increase | change in indoximod Cmax versus indoximod [1]: increase | change in indoximod AUC versus indoximod [2]: decrease | change in indoximod Cmax versus indoximod [2]: decrease
Structure (SMILES): CCOC(=O)[C@H](N)Cc1cn(C)c2ccccc12 [NLG-1283, ethyl 1-methyl-D-tryptophanate hydrochloride]

Hygroscopicity (0-80% RH) [3]: 0.017 | pH of the SGF solution (in brackets) ([4]; SGF solubility test, listed as HCl Salt): 1.03 | Solubility (25° C., mg/mL) SGF ([4]; listed as HCl Salt): > 200 mg/mL | Solubility (25° C., mg/mL) SGF ([4]; listed as hydrochloride salt): > 200 mg/mL | pH of the water solution (in brackets) ([4]; water solubility test, listed as HCl Salt): 1.06 | Solubility (25° C., mg/mL) Water ([4]; listed as HCl Salt): > 200 mg/mL | Solubility (25° C., mg/mL) Water ([4]; listed as hydrochloride salt): > 200 mg/mL | increase in Cmax compared to indoximod free base capsules [5, 7]: 31-65% | increase in exposure compared to indoximod free base capsules [5, 7]: 37-53% | % Increase over indoximod FB (AUC) ([5]; 275 μmol/kg): 53% | % Increase over indoximod FB (Cmax) ([5]; 275 μmol/kg): 65% | AUC(0 −> 48 h) ([5]; 275 μmol/kg): 101 ± 18 µM·h | Cmax ([5]; 275 μmol/kg): 21.3 ± 8.9 µM | % Increase over indoximod FB (AUC) ([5]; 825 μmol/kg): 37% | % Increase over indoximod FB (Cmax) ([5]; 825 μmol/kg): 31% | AUC(0 −> 48 h) ([5]; 825 μmol/kg): 173 ± 75 µM·h | Cmax ([5]; 825 μmol/kg): 33.4 ± 12 µM | % Increase over indoximod Free Base (AUC) ([6]; 37 μmol/kg): −23% | % Increase over indoximod Free Base (Cmax) ([6]; 37 μmol/kg): −40% | AUC(0 −> ∞) ([6]; 37 μmol/kg): 299 ± 77 µM·h | Cmax ([6]; 37 μmol/kg): 9.5 ± 2 µM | % Increase over indoximod Free Base (AUC) [6, 8]: did not show a significant change | % Increase over indoximod Free Base (Cmax) [6, 8]: non-statistically significant decrease | % Increase over indoximod Free Base (AUC) ([6]; 185 μmol/kg): 38% | % Increase over indoximod Free Base (Cmax) ([6]; 185 μmol/kg): 84% | AUC(0 −> ∞) ([6]; 185 μmol/kg): 1493 ± 728 µM·h | Cmax ([6]; 185 μmol/kg): 38.4 ± 10 µM | % Increase over indoximod Free Base (AUC) [6, 9]: significant increase | % Increase over indoximod Free Base (Cmax) [6, 9]: statistically significant increase | % Increase over indoximod Free Base (AUC) ([6]; 500 μmol/kg): −6% | % Increase over indoximod Free Base (Cmax) ([6]; 500 μmol/kg): −42% | AUC(0 −> ∞) ([6]; 500 μmol/kg): 2706 ± 847 µM·h | Cmax ([6]; 500 μmol/kg): 44.4 ± 8 µM | % Increase over indoximod Free Base (AUC) [6, 10]: did not show a significant change | % Increase over indoximod Free Base (Cmax) [6, 10]: statistically significant decrease
Structure (SMILES): Cn1cc(C[C@@H](N)C(=O)O)c2ccccc21 [indoximod HCl, (R)-1-carboxy-2-(1-methyl-1H-indol-3-yl)ethan-1-aminium chloride]
